Columns and labels:
[1] = test system: NCI-H1435 (Non-Small Cell Lung Carcinoma); test: combination Emax (second highest fraction inhibited in the dose matrix, 72 h); higher = more inhibition; extreme values may be limits of the assay
In short: (§1)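 Bliss excess equals the observed combination effect minus the expected value EA + EB − EA·EB, where EA and EB are the effects of each agent alone. Combination Emax is the second-highest inhibition within the matrix. Inhibition was scaled from CellTiter-Glo 2.0 luminescence, with 0 set by vehicle wells and 1 by blank wells, after 72 hours of two-drug dosing of cells plated in 1536-well plates.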

[2] = test system: A375 (Melanoma); test: as above
In short: as §1

[3] = test system: MRK-nu-1 (Breast Carcinoma); test: as above
In short: as §1

[4] = test system: OVKATE (Ovarian Carcinoma); test: as above
In short: as §1

[5] = test system: NTERA-2-cl-D1 (Other Solid Carcinomas); test: as above
In short: as §1

[6] = test system: NCI-H2023 (Non-Small Cell Lung Carcinoma); test: as above
In short: as §1

[7] = test system: COR-L105 (Lung Adenocarcinoma); test: as above
In short: as §1

[8] = test system: NCI-H2009 (Lung Adenocarcinoma); test: as above
In short: as §1

[9] = test system: MG-63 (Osteosarcoma); test: as above
In short: as §1

[10] = test system: SW1463 (Colorectal Carcinoma); test: as above
In short: as §1

[11] = test system: NCI-H2452 (Mesothelioma); test: as above
In short: as §1

[12] = test system: NCI-H835 (Other Solid Carcinomas); test: as above
In short: as §1

[13] = test system: KNS-62 (Squamous Cell Lung Carcinoma); test: as above
In short: as §1

[14] = test system: RPMI-8402 (T-Lymphoblastic Leukemia); test: as above
In short: as §1

[15] = test system: SBC-3 (Small Cell Lung Carcinoma); test: as above
In short: as §1

[16] = test system: NCI-H1648 (Lung Adenocarcinoma); test: as above
In short: as §1

[17] = test system: L-363 (Plasma Cell Myeloma); test: as above
In short: as §1

[18] = test system: C32 (Melanoma); test: as above
In short: as §1

[19] = test system: BC-1 (B-Cell Non-Hodgkin's Lymphoma); test: as above
In short: as §1

[20] = test system: MDA-MB-175-VII (Breast Carcinoma); test: as above
In short: as §1

[21] = test system: CAL-85-1 (Breast Carcinoma); test: as above
In short: as §1

[22] = test system: GCIY (Gastric Carcinoma); test: as above
In short: as §1

[23] = test system: SK-MEL-24 (Melanoma); test: as above
In short: as §1

[24] = test system: NCI-H1435 (Non-Small Cell Lung Carcinoma); test: Bliss excess, mean over the matrix (fraction); higher = more synergy
In short: as §1

[25] = test system: A375 (Melanoma); test: as above
In short: as §1

[26] = test system: MRK-nu-1 (Breast Carcinoma); test: as above
In short: as §1

[27] = test system: OVKATE (Ovarian Carcinoma); test: as above
In short: as §1

[28] = test system: NTERA-2-cl-D1 (Other Solid Carcinomas); test: as above
In short: as §1

[29] = test system: NCI-H2023 (Non-Small Cell Lung Carcinoma); test: as above
In short: as §1

[30] = test system: COR-L105 (Lung Adenocarcinoma); test: as above
In short: as §1

[31] = test system: NCI-H2009 (Lung Adenocarcinoma); test: as above
In short: as §1

[32] = test system: MG-63 (Osteosarcoma); test: as above
In short: as §1

[33] = test system: SW1463 (Colorectal Carcinoma); test: as above
In short: as §1

[34] = test system: NCI-H2452 (Mesothelioma); test: as above
In short: as §1

[35] = test system: NCI-H835 (Other Solid Carcinomas); test: as above
In short: as §1

[36] = test system: KNS-62 (Squamous Cell Lung Carcinoma); test: as above
In short: as §1

[37] = test system: RPMI-8402 (T-Lymphoblastic Leukemia); test: as above
In short: as §1

[38] = test system: SBC-3 (Small Cell Lung Carcinoma); test: as above
In short: as §1

[39] = test system: NCI-H1648 (Lung Adenocarcinoma); test: as above
In short: as §1

[40] = test system: L-363 (Plasma Cell Myeloma); test: as above
In short: as §1

[41] = test system: C32 (Melanoma); test: as above
In short: as §1

[42] = test system: BC-1 (B-Cell Non-Hodgkin's Lymphoma); test: as above
In short: as §1

[43] = test system: MDA-MB-175-VII (Breast Carcinoma); test: as above
In short: as §1

[44] = test system: CAL-85-1 (Breast Carcinoma); test: as above
In short: as §1

[45] = test system: GCIY (Gastric Carcinoma); test: as above
In short: as §1

[46] = test system: SK-MEL-24 (Melanoma); test: as above
In short: as §1

## C=CCn1c(=O)c2cnc(Nc3ccc(N4CCN(C)CC4)cc3)nc2n1-c1cccc(C(C)(C)O)n1 [AZD1775] + CCc1c2c(nc3ccc(O)cc13)-c1cc3c(c(=O)n1C2)COC(=O)[C@]3(O)CC [SN-38] (first compound max 1 µM, partner max 0.3 µM)
[1]
  combination Emax: 0.547
[2]
  combination Emax: 0.925
[3]
  combination Emax: 0.81
[4]
  combination Emax: 0.336
[5]
  combination Emax: 0.682
[6]
  combination Emax: 0.775
[7]
  combination Emax: 0.478
[8]
  combination Emax: 0.936
[9]
  combination Emax: 0.968
[10]
  combination Emax: 0.587
[11]
  combination Emax: 0.675
[12]
  combination Emax: 0.668
[13]
  combination Emax: 0.836
[14]
  combination Emax: 1
[15]
  combination Emax: 0.946
[16]
  combination Emax: 0.842
[17]
  combination Emax: 0.903
[18]
  combination Emax: 0.69
[19]
  combination Emax: 1
[20]
  combination Emax: 0.659
[21]
  combination Emax: 0.799
[22]
  combination Emax: 0.756
[23]
  combination Emax: 0.806
[24]
  Bliss excess: 0.0158
[25]
  Bliss excess: -0.0409
[26]
  Bliss excess: 0.0275
[27]
  Bliss excess: -0.079
[28]
  Bliss excess: 0.0011
[29]
  Bliss excess: -0.0478
[30]
  Bliss excess: -0.0262
[31]
  Bliss excess: 0.0769
[32]
  Bliss excess: -0.0239
[33]
  Bliss excess: -0.0287
[34]
  Bliss excess: -0.0145
[35]
  Bliss excess: -0.0442
[36]
  Bliss excess: -0.0374
[37]
  Bliss excess: 0.0012
[38]
  Bliss excess: -0.0297
[39]
  Bliss excess: -0.0217
[40]
  Bliss excess: 0.0273
[41]
  Bliss excess: -0.0375
[42]
  Bliss excess: -0.0252
[43]
  Bliss excess: -0.0068
[44]
  Bliss excess: -0.0337
[45]
  Bliss excess: -0.0431
[46]
  Bliss excess: -0.103

## Cc1c2c(nn1C)CSCc1cc(n(C)n1)CSc1cc(c3ccccc3c1)OCCCc1c(C(=O)O)n(C)c3c-2c(Cl)ccc13 [AZD5991] + Nc1ccn([C@@H]2O[C@H](CO)[C@@H](O)C2(F)F)c(=O)n1 [Gemcitabine] (first compound max 1 µM, 7x7, partner max 0.3 µM)
[1]
  combination Emax: 0.317
[2]
  combination Emax: 0.961
[3]
  combination Emax: 1
[4]
  combination Emax: 0.165
[5]
  combination Emax: 0.536
[6]
  combination Emax: 0.612
[7]
  combination Emax: 0.377
[8]
  combination Emax: 0.487
[9]
  combination Emax: 0.82
[10]
  combination Emax: 0.516
[11]
  combination Emax: 0.319
[12]
  combination Emax: 0.42
[13]
  combination Emax: 0.413
[14]
  combination Emax: 1
[15]
  combination Emax: 0.962
[16]
  combination Emax: 0.5
[17]
  combination Emax: 0.999
[18]
  combination Emax: 0.762
[19]
  combination Emax: 1
[20]
  combination Emax: 0.48
[21]
  combination Emax: 0.558
[22]
  combination Emax: 0.649
[23]
  combination Emax: 0.758
[24]
  Bliss excess: -0.0706
[25]
  Bliss excess: 0.0115
[26]
  Bliss excess: 0.0571
[27]
  Bliss excess: -0.0373
[28]
  Bliss excess: -0.0695
[29]
  Bliss excess: -0.0707
[30]
  Bliss excess: 0.0042
[31]
  Bliss excess: -0.0361
[32]
  Bliss excess: -0.071
[33]
  Bliss excess: -0.0715
[34]
  Bliss excess: -0.0642
[35]
  Bliss excess: 0.0842
[36]
  Bliss excess: -0.009
[37]
  Bliss excess: 0.0264
[38]
  Bliss excess: 0.0059
[39]
  Bliss excess: -0.0061
[40]
  Bliss excess: 0.0938
[41]
  Bliss excess: -0.0117
[42]
  Bliss excess: 0.033
[43]
  Bliss excess: 0.0148
[44]
  Bliss excess: -0.027
[45]
  Bliss excess: 0.0091
[46]
  Bliss excess: -0.0245

From the supplement of paper PMC11061612
